ChEMBL document CHEMBL1201862, “PubChem BioAssay data set” (2004)
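96-well plates; 48 h exposure; 5 concentrations. Endpoints by linear interpolation between flanking doses. Not reached: highest tested concentration assigned. GI50 is the concentration that inhibits growth by half.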 Active and inactive are the calls of the source. No stated cut-off is given here; in the data, active = GI50 up to about 1.1 µM and inactive = higher.

Columns and labels:
Assay in all cases: DTP human tumour cell line panel, 48 h
UACC-62 = system: UACC-62
NCI-H23 = system: NCI-H23
SK-OV-3 = system: SK-OV-3
Malme-3M = system: Malme-3M
EKVX = system: EKVX
IGROV-1 = system: IGROV-1
OVCAR-5 = system: OVCAR-5
NCI/ADR-RES = system: NCI/ADR-RES
COLO 205 = system: COLO 205
CAKI-1 = system: CAKI-1
ACHN = system: ACHN
OVCAR-8 = system: OVCAR-8
RXF 393 = system: RXF 393
HCT-116 = system: HCT-116
NCI-H460 = system: NCI-H460
TK-10 = system: TK-10
HOP-92 = system: HOP-92
BT-549 = system: BT-549
CCRF-CEM = system: CCRF-CEM

Measured: GI50

COC(=O)C1CCC(=O)N1CN(C(C)=O)c1cccc(O)c1 (stereo unspecified)
inactive: UACC-62 > 100 µM | NCI-H23 > 100 µM | SK-OV-3 > 100 µM | Malme-3M > 100 µM | EKVX > 100 µM | IGROV-1 > 100 µM | OVCAR-5 > 100 µM | NCI/ADR-RES > 100 µM | COLO 205 > 100 µM | CAKI-1 > 100 µM | ACHN > 100 µM | OVCAR-8 > 100 µM | RXF 393 > 100 µM | HCT-116 > 100 µM | NCI-H460 > 100 µM | TK-10 > 100 µM | HOP-92 > 100 µM

COc1ccc(/C=C2\C(=O)N(C)C(=O)c3cc(OC)c(OC)cc32)cc1OC
inactive: UACC-62 26.9 µM | NCI-H23 39.5 µM | EKVX 10.7 µM | IGROV-1 29.2 µM | OVCAR-5 48.9 µM | BT-549 17.6 µM | COLO 205 16.4 µM | CAKI-1 13.4 µM | ACHN 30.5 µM | CCRF-CEM 20.2 µM | RXF 393 23.6 µM | HCT-116 29.4 µM | NCI-H460 37.5 µM | TK-10 43.1 µM | HOP-92 23.4 µM

CC(=O)N1c2ccccc2C2=CC3C4C(=O)N(c5ccccc5)C(=O)C4C21C1C(=O)N(c2ccccc2)C(=O)C31 (stereo unspecified)
inactive: UACC-62 30.6 µM | NCI-H23 48.2 µM | SK-OV-3 23.1 µM | Malme-3M 99.5 µM | IGROV-1 75.7 µM | OVCAR-5 55.1 µM | COLO 205 59.7 µM | CAKI-1 48.3 µM | ACHN 31 µM | OVCAR-8 23.1 µM | CCRF-CEM 16.2 µM | HCT-116 3.83 µM | NCI-H460 16.8 µM | TK-10 > 100 µM | HOP-92 > 100 µM

N#Cc1[nH]c(=O)n(-c2cccc3ccccc23)c1N
inactive: UACC-62 > 10 µM | NCI-H23 > 10 µM | SK-OV-3 > 10 µM | Malme-3M > 10 µM | EKVX > 10 µM | IGROV-1 > 10 µM | OVCAR-5 > 10 µM | NCI/ADR-RES > 10 µM | BT-549 4.61 µM | COLO 205 > 10 µM | CAKI-1 > 10 µM | ACHN > 10 µM | OVCAR-8 > 10 µM | CCRF-CEM > 10 µM | RXF 393 > 10 µM | HCT-116 > 10 µM | NCI-H460 > 10 µM | TK-10 > 10 µM

CC1(C)CC23CC(C)(C)c4cccc(c42)OCc2ccc4ccc5ccc(nc5c4n2)COc2cccc1c23
inactive: UACC-62 > 50 µM | SK-OV-3 > 50 µM | EKVX > 50 µM | IGROV-1 > 50 µM | OVCAR-5 > 50 µM | NCI/ADR-RES > 50 µM | BT-549 > 50 µM | COLO 205 > 50 µM | CAKI-1 > 50 µM | ACHN > 50 µM | OVCAR-8 > 50 µM | HCT-116 > 50 µM | NCI-H460 > 50 µM | TK-10 > 50 µM | HOP-92 > 50 µM

CC(C)(O)/C=C\P(=O)(O)O
inactive: UACC-62 > 100 µM | NCI-H23 > 100 µM | SK-OV-3 > 100 µM | Malme-3M > 100 µM | EKVX > 100 µM | IGROV-1 > 100 µM | OVCAR-5 > 100 µM | NCI/ADR-RES > 100 µM | COLO 205 > 100 µM | CAKI-1 > 100 µM | ACHN > 100 µM | OVCAR-8 > 100 µM | RXF 393 > 100 µM | HCT-116 > 100 µM | NCI-H460 > 100 µM | TK-10 > 100 µM | HOP-92 > 100 µM

CSC1(CC(=O)N2CCCCC2)C(=O)Nc2ccccc21 (stereo unspecified)
inactive: UACC-62 > 100 µM | NCI-H23 > 100 µM | SK-OV-3 > 100 µM | Malme-3M > 100 µM | EKVX > 100 µM | IGROV-1 > 100 µM | OVCAR-5 > 100 µM | NCI/ADR-RES > 100 µM | BT-549 > 100 µM | COLO 205 > 100 µM | ACHN > 100 µM | HCT-116 > 100 µM | NCI-H460 > 100 µM | TK-10 > 100 µM

O=C1O[C@@H](c2ccccc2)C[C@@H]1CN1CCOCC1
inactive: UACC-62 > 100 µM | NCI-H23 26.3 µM | SK-OV-3 > 100 µM | Malme-3M > 100 µM | EKVX > 100 µM | IGROV-1 > 100 µM | OVCAR-5 > 100 µM | COLO 205 > 100 µM | CAKI-1 65.5 µM | ACHN > 100 µM | OVCAR-8 > 100 µM | CCRF-CEM > 100 µM | RXF 393 > 100 µM | NCI-H460 > 100 µM | TK-10 > 100 µM | HOP-92 > 100 µM

COC(=O)Oc1nn(C(=O)OC)c(=O)c2ccccc12
inactive: UACC-62 > 100 µM | NCI-H23 > 100 µM | SK-OV-3 > 100 µM | Malme-3M 42.4 µM | EKVX > 100 µM | IGROV-1 > 100 µM | OVCAR-5 > 100 µM | NCI/ADR-RES > 100 µM | BT-549 > 100 µM | COLO 205 85.1 µM | CAKI-1 > 100 µM | ACHN > 100 µM | OVCAR-8 > 100 µM | CCRF-CEM > 100 µM | HCT-116 > 100 µM | TK-10 > 100 µM

O=[N+]([O-])c1ccc(Cl)cc1C1ON=C(c2ccccc2)N1C12CC3CC(CC(C3)C1)C2 (stereo unspecified)
inactive: UACC-62 > 100 µM | NCI-H23 > 100 µM | SK-OV-3 > 100 µM | Malme-3M 49.4 µM | EKVX > 100 µM | IGROV-1 > 100 µM | OVCAR-5 > 100 µM | NCI/ADR-RES > 100 µM | COLO 205 > 100 µM | CAKI-1 > 100 µM | ACHN > 100 µM | CCRF-CEM > 100 µM | RXF 393 > 100 µM | HCT-116 86.9 µM | NCI-H460 > 100 µM | TK-10 > 100 µM | HOP-92 > 100 µM

CC(NNC(=O)c1ccncc1)c1cccc(C(F)(F)F)c1 (stereo unspecified)
inactive: UACC-62 > 100 µM | NCI-H23 > 100 µM | SK-OV-3 > 100 µM | Malme-3M > 100 µM | EKVX > 100 µM | IGROV-1 > 100 µM | OVCAR-5 > 100 µM | NCI/ADR-RES > 100 µM | COLO 205 > 100 µM | CAKI-1 > 100 µM | ACHN > 100 µM | OVCAR-8 > 100 µM | CCRF-CEM > 100 µM | RXF 393 > 100 µM | HCT-116 > 100 µM | NCI-H460 > 100 µM | TK-10 > 100 µM | HOP-92 > 100 µM

O=S(=O)(c1ccc(/N=C2\NC(c3ccc(O)cc3)(c3ccccc3O)c3ccccc32)cc1)c1ccc(/N=C2/NC(c3ccc(O)cc3)(c3ccccc3O)c3ccccc32)cc1 (stereo unspecified)
inactive: UACC-62 3.85 µM | NCI-H23 2.62 µM | SK-OV-3 9.82 µM | Malme-3M 2.32 µM | EKVX 5.96 µM | IGROV-1 2.68 µM | OVCAR-5 9.27 µM | NCI/ADR-RES 24.7 µM | COLO 205 3.56 µM | CAKI-1 12.9 µM | ACHN 20.2 µM | OVCAR-8 3.33 µM | CCRF-CEM 3.37 µM | RXF 393 4.02 µM | HCT-116 2.23 µM | NCI-H460 3.7 µM | TK-10 13.8 µM | HOP-92 3.91 µM

CCOC(=O)c1cc2c(C(=O)c3ccc([N+](=O)[O-])cc3)c(C(C)=O)ccc2[nH]1
inactive: UACC-62 > 100 µM | NCI-H23 50.2 µM | SK-OV-3 9.06 µM | EKVX > 100 µM | IGROV-1 26.9 µM | OVCAR-5 > 100 µM | BT-549 38.5 µM | COLO 205 > 100 µM | CAKI-1 18.3 µM | ACHN 28.7 µM | CCRF-CEM > 100 µM | RXF 393 15.2 µM | HCT-116 45.6 µM | NCI-H460 82.6 µM | TK-10 22.2 µM | HOP-92 13.2 µM

CCOC(=O)N1CCC2(CC1)C[C@](C)(C(C)=O)C(C)O2 (stereo partly specified)
inactive: UACC-62 > 100 µM | NCI-H23 > 100 µM | SK-OV-3 > 100 µM | Malme-3M > 100 µM | EKVX > 100 µM | IGROV-1 > 100 µM | OVCAR-5 > 100 µM | NCI/ADR-RES > 100 µM | COLO 205 > 100 µM | CAKI-1 > 100 µM | ACHN > 100 µM | OVCAR-8 > 100 µM | NCI-H460 > 100 µM | TK-10 > 100 µM | HOP-92 > 100 µM

CCOC(=O)CC(=O)C(=O)NN=C1NCCCN1
inactive: UACC-62 > 100 µM | NCI-H23 > 100 µM | SK-OV-3 > 100 µM | Malme-3M > 100 µM | EKVX > 100 µM | IGROV-1 > 100 µM | OVCAR-5 > 100 µM | BT-549 > 100 µM | COLO 205 > 100 µM | ACHN > 100 µM | OVCAR-8 > 100 µM | CCRF-CEM > 100 µM | RXF 393 > 100 µM | HCT-116 > 100 µM | NCI-H460 > 100 µM | TK-10 > 100 µM | HOP-92 > 100 µM

CSc1nc(Nc2cccc(C(F)(F)F)c2)c2c(N)nn(C)c2n1
inactive: UACC-62 > 100 µM | NCI-H23 > 100 µM | SK-OV-3 > 100 µM | Malme-3M 59.4 µM | IGROV-1 > 100 µM | OVCAR-5 > 100 µM | NCI/ADR-RES 85.3 µM | BT-549 > 100 µM | COLO 205 > 100 µM | CAKI-1 > 100 µM | ACHN > 100 µM | OVCAR-8 > 100 µM | CCRF-CEM 38.1 µM | RXF 393 20.5 µM | HCT-116 > 100 µM | NCI-H460 50.9 µM | TK-10 > 100 µM
